In patent US9375484B2, “Taxane silicate prodrugs and nanoparticles” (REGENTS OF THE UNIVERSITY OF MINNESOTA, priority 2011, dated 2016):
Where two headings read alike, the source gives them in different places. Marks after values point to notes of the source that are not given here.

What was measured:
[1] = PTX silicate hydrolysis rates by 1H NMR; assay type: physicochemical; conditions: for krel at C2′ (hydrolysis rate relative to the slowest, 1d) / krel at C7 (hydrolysis rate relative to the slowest, 1d): d6-acetone:D2O:TFA 90:9:1, room temperature; for krel at C2′ (hydrolysis rate relative to the slowest, 1d): 1d = 1.0, ± SD of three trials; for krel at C7 (hydrolysis rate relative to the slowest, 1d): for 2a/2b rate of in situ generated 3a/3b to PTX
Description: A known quantity of a PTX prodrug was dissolved in 900 μL of d6-acetone. To this homogenous solution, 100 μL of a 9:1 solution of D2O: trifluoroacetic acid (TFA) was added, and the solution was vigorously mixed. The ^1H NMR spectra was taken (16 transients) on a 500 MHz Varian instrument at multiple time points over the course of more than three half-lives. The study was conducted at room temperature (rt=22.5° C.±1.0° C.) Upon completion of the study, the 2′ and/or 7 methine resonances were integrated in a baseline-adjusted NMR spectrum using MestRec software. The relative integrations were used to determine the extent of hydrolysis. The data from three replications was plotted on a semi-log scale to determine the kobs of the prodrug that were then converted to the krel data as presented, defining the rate of the most slowly hydrolyzed prodrug (1d) as krel=1.0. Errors are defined as the standard deviation of the three trials.
^1H NMR spectroscopy was used to establish relative hydrolysis rates of compounds 1-3. The compounds were dissolved in a solution of d6-acetone, D2O, and trifluoroacetic acid (TFA) in a 90:9:1 ratio (v/v/v). Resonances of, e.g., H2′ in the reactant silicate vs. product carbinol were monitored.

MDA-MB-231 cells = assay: MTT cytotoxicity of PTX silicate prodrugs; assay type: cell-based, human
Description: MDA-MB-231 and MDA-MB-231 Luciferase positive cells were maintained independently in MEM supplemented with 1% pen/strep and 10% FBS at 37° C. in a humidified incubator. MDA-MB-231 cells were obtained from the American Type Culture Collection. MDA-MB-231 Luc+ cells were obtained from CaliperLS (Hopkinton, Mass., USA). For MTT cytotoxicity studies, MDA-MB-231 cells were seeded at 8,000 cells/well in a 96 well plate in 100 μL MEM with 5% FBS. Paclitaxel, and paclitaxel silicate prodrug stock solutions of 10 mM were prepared in DMSO. Stock solutions were diluted to 2× concentration in MEM with 5% FBS, 100 μL volume, and pipetted into the 96 well plate. Concentration ranges were from 1-10,000 nM. After 48 hours, 30 μL of MTT working reagent was added to cells. Absorbance at 490 nm was monitored on a 96 well plate UV vis detector at 60 minutes. IC50 values were determined by nonlinear regression analysis of log concentration v. response data obtained from the MTT assay. The IC50 was interpolated from the resulting curves using Graphpad Prism v5.1 (Graphpad Software Inc. La Jolla Calif., USA).
Cytotoxicity of the PTX silicate prodrugs 1-3 was examined in the MDA-MB-231 human breast cancer cell line (Table 2).

[2] = tested on: Tumor cells (4T1, PANC-1 or MDA-MB-231); assay: Cytotoxicity against tumor cells in vitro (MTS assay); assay type: cell-based; conditions: 72 hours, FIG. 2
Description: Tumor cells (4T1, PANC-1 or MDA-MB-231) were seeded in 96-well plates and allowed to attach. Cells were then treated with paclitaxel (solubilized in growth medium using ethanol), silicate prodrug (2a, solubilized in growth medium using ethanol), silicate prodrug nanoparticles (a 58:42 wt % mixture of the bis-triethyl silicate paclitaxel prodrug 2a and a 5K-10K PEG-PLGA BCP dispersed in growth medium) or copolymer-only (blank, no drug) nanoparticles for 72 hours. Cell viability was then measured using a standard MTS assay kit (Promega).

Orthotopic 4T1 tumors = assay: 4T1 tumor growth in mice; assay type: in vivo, BALB/c mice
Description: Orthotopic 4T1 tumors were grown by injecting ˜1×10^6 tumor cells in the mammary fat pad of BALB/c mice. When the tumors were about 100 mm^3 in volume, the animals were injected with a single dose of paclitaxel dissolved in 1:1 mix of ethanol and cremophor (same formulation as Taxol®), silicate prodrug (2a) dissolved in 1:1 mix of ethanol and cremophor (same formulation as Taxol®), or silicate prodrug nanoparticles dispersed in buffered saline. Untreated animals or those treated with just cremophor/ethanol vehicle were used as controls. […] This study clearly indicates the benefit of formulating paclitaxel in the form of silicate prodrug nanoparticle formulation.

| Compound | krel at C2′ (hydrolysis rate relative to the slowest, 1d) [1] | IC50 (MDA-MB-231 cells; Homo sapiens, MDA-MB-231, 48 h) | krel at C7 (hydrolysis rate relative to the slowest, 1d) [1] | other results |
| --- | --- | --- | --- | --- |
| CC(=O)O[C@H]1C(=O)[C@@]2(C)[C@H]([C@H](OC(=O)c3ccccc3)[C@]3(O)C[C@H](OC(=O)[C@H](O[Si](OC(C)C)(OC(C)C)OC(C)C)[C@@H](NC(=O)c4ccccc4)c4ccccc4)C(C)=C1C3(C)C)[C@]1(OC(C)=O)CO[C@@H]1C[C@@H]2O [Compound 1c, 2′-O-(tri-i-propylorthosilyl)paclitaxel] | 69 ± 4 | 24.5 nM |  |  |
| CCO[Si](O[C@@H](C(=O)O[C@H]1C[C@@]2(O)[C@@H](OC(=O)c3ccccc3)[C@@H]3[C@]4(OC(C)=O)CO[C@@H]4C[C@H](O)[C@@]3(C)C(=O)[C@H](OC(C)=O)C(=C1C)C2(C)C)[C@@H](NC(=O)c1ccccc1)c1ccccc1)(OC(C)(C)C)OC(C)(C)C [Compound 1d, 2′-O-(di-t-butylethylorthosilyl)paclitaxel] | 1.0 ± 0.1 | 8140 nM |  |  |
| CCO[Si](OCC)(OCC)O[C@H]1C[C@H]2OC[C@@]2(OC(C)=O)[C@H]2[C@H](OC(=O)c3ccccc3)[C@]3(O)C[C@H](OC(=O)[C@H](O)[C@@H](NC(=O)c4ccccc4)c4ccccc4)C(C)=C([C@@H](OC(C)=O)C(=O)[C@]12C)C3(C)C [Compound 3a, 7-O-(triethylorthosilyl)paclitaxel] |  | 21.4 nM | 270 ± 10^ |  |
| CCCCCCCCO[Si](OCCCCCCCC)(OCCCCCCCC)O[C@H]1C[C@H]2OC[C@@]2(OC(C)=O)[C@H]2[C@H](OC(=O)c3ccccc3)[C@]3(O)C[C@H](OC(=O)[C@H](O)[C@@H](NC(=O)c4ccccc4)c4ccccc4)C(C)=C([C@@H](OC(C)=O)C(=O)[C@]12C)C3(C)C [Compound 3b, 7-O-(tri-n-octylorthosilyl)paclitaxel] |  | 540 nM | 55 ± 3^ |  |
| CCCCCCCCO[Si](OCCCCCCCC)(OCCCCCCCC)OC(C(=O)OC1CC2(O)C(OC(=O)c3ccccc3)C3C4(OC(C)=O)COC4CC(O[Si](OCCCCCCCC)(OCCCCCCCC)OCCCCCCCC)C3(C)C(=O)C(OC(C)=O)C(=C1C)C2(C)C)C(NC(=O)c1ccccc1)c1ccccc1 (centres unmarked) [Compound 2b, 2′,7-Di-O-(tri-n-octylorthosilyl)paclitaxel] | 460 ± 10 |  | 41 ± 3^b |  |
| CCO[Si](OCC)(OCC)O[C@H]1C[C@H]2OC[C@@]2(OC(C)=O)[C@H]2[C@H](OC(=O)c3ccccc3)[C@]3(O)C[C@H](OC(=O)[C@H](O[Si](OCC)(OCC)OCC)[C@@H](NC(=O)c4ccccc4)c4ccccc4)C(C)=C([C@@H](OC(C)=O)C(=O)[C@]12C)C3(C)C [Compound 2a, 2′,7-Di-O-(triethylorthosilyl)paclitaxel] | 1800 ± 100 | 74.4 nM | 250 ± 10^a | anticancer efficacy (cell viability) compared with paclitaxel [2]: anticancer efficacy similar to the parent compound |
| CCO[Si](OCC)(OCC)O[C@@H](C(=O)O[C@H]1C[C@@]2(O)[C@@H](OC(=O)c3ccccc3)[C@@H]3[C@]4(OC(C)=O)CO[C@@H]4C[C@H](O)[C@@]3(C)C(=O)[C@H](OC(C)=O)C(=C1C)C2(C)C)[C@@H](NC(=O)c1ccccc1)c1ccccc1 [Compound 1a, 2′-O-(triethylorthosilyl)paclitaxel] | 2200 ± 600 | 23 nM |  | difference of krel values between the extremes 1a and 1d ([1]; 1a versus 1d): > 2000 ×; krel of 1a relative to 1b ([1]; hydrolysis rates of 1a and 1b called similar): ca. 3 |
| CCCCCCCCO[Si](OCCCCCCCC)(OCCCCCCCC)OC(C(=O)OC1CC2(O)C(OC(=O)c3ccccc3)C3C4(OC(C)=O)COC4CC(O)C3(C)C(=O)C(OC(C)=O)C(=C1C)C2(C)C)C(NC(=O)c1ccccc1)c1ccccc1 (centres unmarked) [Compound 1b, 2-O-(tri-n-octylorthosilyl)paclitaxel] | 710 ± 30 |  |  | IC50 (MDA-MB-231 cells; MDA-MB-231 cells, cell viability measured after 48 h, MTT, read-out: IC50): 35.6 nM |
| CC(=O)O[C@H]1C(=O)[C@@]2(C)[C@H]([C@H](OC(=O)c3ccccc3)[C@]3(O)C[C@H](OC(=O)[C@H](O)[C@@H](NC(=O)c4ccccc4)c4ccccc4)C(C)=C1C3(C)C)[C@]1(OC(C)=O)CO[C@@H]1C[C@@H]2O [PTX, paclitaxel] |  |  |  | IC50 (MDA-MB-231 cells; Homo sapiens, MDA-MB-231 cells, cell viability measured after 48 h, MTT, read-out: IC50): 23.6 nM; tumor volume (Orthotopic 4T1 tumors; Day 13, single dose, tumors about 100 mm^3 at injection): 1450±65 mm^3; reaction at the site of injection (Orthotopic 4T1 tumors; single injection, BALB/c mice): severe tissue irritation and necrosis at the site of injection |
